{"source": "patent US12195427B2", "about": "“MASP-2 inhibitors and methods of use” (priority 2018, dated 2025)", "biological_target": "MASP-2 CCP2-SP (Homo sapiens (Human), UniProt O00187)", "sequence (O00187 445-686)": "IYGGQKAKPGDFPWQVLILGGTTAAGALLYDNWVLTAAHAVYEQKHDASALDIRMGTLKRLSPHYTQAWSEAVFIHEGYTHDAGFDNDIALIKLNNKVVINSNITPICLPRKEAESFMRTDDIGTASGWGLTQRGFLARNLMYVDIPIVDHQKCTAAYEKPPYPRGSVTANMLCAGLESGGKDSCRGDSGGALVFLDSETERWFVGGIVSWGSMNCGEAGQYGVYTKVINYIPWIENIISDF", "sequence (O00187 364-432 partner)": "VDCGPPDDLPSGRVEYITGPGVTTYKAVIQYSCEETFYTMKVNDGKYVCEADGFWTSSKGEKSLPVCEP", "test": "MASP-2 co-crystallization, X-ray crystallography and structure analysis (H-bonds, van der Waals contacts);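 as to Ligand-pharmacophore element distance, pharmacophore element C2: distance from averaged pharmacophore element to bound ligand; missing value means element absent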;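 as to Ligand-pharmacophore element distance, pharmacophore element C3: distance from averaged pharmacophore element to bound ligand; missing value means element absent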;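 as to Ligand-pharmacophore element distance, pharmacophore element C4: distance from averaged pharmacophore element to bound ligand; missing value means element absent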;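 as to Ligand-pharmacophore element distance, pharmacophore element C5: distance from averaged pharmacophore element to bound ligand; missing value means element absent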", "set-up": "van der Waals contact distance, MASP-2 HIS 483 atom CD2 / van der Waals contact distance, MASP-2 HIS 483 atom NE2 / van der Waals contact distance, SER 654 C to compound atom / van der Waals contact distance, SER 654 O to compound atom / van der Waals contact distance, TRP 655 C to compound atom / van der Waals contact distance, MASP-2 GLY 528 atom CA / van der Waals contact distance TRP 655 atom CZ3 / van der Waals contact distance TRP 655 atom N / van der Waals contact distance TRP 655 atom CE3 / van der Waals contact distance GLY 656 atom C / van der Waals contact distance GLY 656 atom CA / van der Waals contact distance GLY 656 atom O / van der Waals contact distance, MASP-2 TYR 607 atom CD1 / van der Waals contact distance, MASP-2 PRO 606 atom O / d(C3,CA1) / d(CA1,N1)2 / d(H4,O1) / d(H4,O2) / d(O1,O2) / d(CA1,O2) / d(CA6,O1) / d(CA6,O2) / d(CA1,C5) / d(O2,H3) / d(N2,C2) / d(CA5,N2) / d(N2,C4) / d(N2,C6) / d(N2,CA3) / d(N2,O3) / d(O4,H2): unit not given beside the values", "conditions": "for Ligand-pharmacophore element distance, pharmacophore element C2 / Ligand-pharmacophore element distance, pharmacophore element C3 / Ligand-pharmacophore element distance, pharmacophore element C4 / Ligand-pharmacophore element distance, pharmacophore element C5 / Ligand-pharmacophore element distance, pharmacophore element C6 / Ligand-pharmacophore element distance, pharmacophore element C7 / Ligand-pharmacophore element distance, pharmacophore element CA1 / Ligand-pharmacophore element distance, pharmacophore element CA2 / Ligand-pharmacophore element distance, pharmacophore element CA3 / Ligand-pharmacophore element distance, pharmacophore element CA4 / Ligand-pharmacophore element distance, pharmacophore element CA5 / Ligand-pharmacophore element distance, pharmacophore element CA6: Table A4-1; for d(C3,CA1) / d(CA1,N1)2 / d(CA1,O1) / d(CA1,O2) / d(H4,O1) / d(H4,O2) / d(O1,O2): Table A5-1 pharmacophore: distance between elements, S2/S1 region; for a(C3, CA1, O1) / a(CA1, O1, O2) / a(O1, O2, H4) / a(N1, CA1, O1) b): Table A6-1 pharmacophore angle; for a(N1, CA1, O1) b): Methyl-amino-pyridine compounds", "how_it_was_run": "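Inhibitor complexes were obtained by soaking crystals of E. coli-expressed human MASP-2 CCP2-SP constructs, then flash-cooling in liquid nitrogen. Structures solved by molecular replacement (1Q3X search model) from synchrotron diffraction; where several poses existed, only one was analyzed, and nonbonded contacts listed can include H-bonds.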", "key": {"[1]": {"conditions": "Table A5-2 pharmacophore distance, S3/S4 region"}, "[2]": {"conditions": "Table A7-1, between pharmacophore elements of the bound compound"}}, "data": [{"smiles": "Cc1nc(N)ccc1CNC(=O)[C@H](C)NC(=O)[C@H]1C[C@H](Cc2cccc(Cl)c2)CN1.Cl.Cl", "note": "[1328_3]", "values": [{"measurement": "Ligand-pharmacophore element distance, pharmacophore element C2", "result": 0}, {"measurement": "Ligand-pharmacophore element distance, pharmacophore element C3", "result": 0.21}, {"measurement": "Ligand-pharmacophore element distance, pharmacophore element C4", "result": 1.76}, {"measurement": "Ligand-pharmacophore element distance, pharmacophore element C5", "result": 0}, {"measurement": "Ligand-pharmacophore element distance, pharmacophore element C6", "result": 0}, {"measurement": "Ligand-pharmacophore element distance, pharmacophore element C7", "result": 0}, {"measurement": "Ligand-pharmacophore element distance, pharmacophore element CA1", "result": 0.4}, {"measurement": "Ligand-pharmacophore element distance, pharmacophore element CA2", "result": 0.48}, {"measurement": "Ligand-pharmacophore element distance, pharmacophore element CA3", "result": 0}, {"measurement": "Ligand-pharmacophore element distance, pharmacophore element CA4", "result": 0}, {"measurement": "Ligand-pharmacophore element distance, pharmacophore element CA5", "result": 0}, {"measurement": "Ligand-pharmacophore element distance, pharmacophore element CA6", "result": 0}, {"measurement": "d(C3,CA1)", "result": 2.85}, {"measurement": "d(CA1,N1)2", "result": 1.38}, {"measurement": "d(CA1,O1)", "result": 4.82}, {"measurement": "d(CA1,O2)", "result": 3.89}, {"measurement": "d(H4,O1)", "result": 3.99}, {"measurement": "d(H4,O2)", "result": 2.55}, {"measurement": "d(O1,O2)", "result": 3.40}, {"measurement": "d(N2,C4)", "setting": "[1]", "result": 7.95}, {"measurement": "d(N2,C4)4", "setting": "[1]", "result": 7.95}, {"measurement": "d(N2,CA2)", "setting": "[1]", "result": 6.00}, {"measurement": "d(O2,H3)", "setting": "[1]", "result": 4.77}, {"measurement": "d(O2,N2)", "setting": "[1]", "result": 2.77}, {"measurement": "a(C3, CA1, O1)", "result": 150.74}, {"measurement": "a(CA1, O1, O2)", "result": 97.62}, {"measurement": "a(O1, O2, H4)", "result": 122.23}, {"measurement": "a(N1, CA1, O1) b)", "result": 173.57}, {"measurement": "a(O1, O2, H3)", "setting": "Table A6-2 pharmacophore angle", "result": 151.35}, {"measurement": "a(O1, O2, N2)", "setting": "Table A6-2 pharmacophore angle", "result": 139.67}, {"measurement": "a(O2, N2, C4)", "setting": "Table A6-2 pharmacophore angle", "result": 160.41}, {"measurement": "a(O2, N2, C4) 2", "setting": "Table A6-2 pharmacophore angle", "result": 106.08}, {"measurement": "a(O2, N2, CA2)", "setting": "Table A6-2 pharmacophore angle", "result": 154.95}, {"measurement": "Pharmacophore torsion angle a(C3, CA1, O1, H4)", "setting": "[2]", "result": 57.52}, {"measurement": "Pharmacophore torsion angle a(H4, O1, O2, H3)", "setting": "[2]", "result": 47.98}, {"measurement": "Pharmacophore torsion angle a(H4, O1, O2, N2)", "setting": "[2]", "result": 130.71}, {"measurement": "Pharmacophore torsion angle a(N1, CA1, O1, H4)", "setting": "[2]", "result": 39.33}, {"measurement": "Pharmacophore torsion angle a(O1, H4, O2, CA1)", "setting": "[2]", "result": "−87.28"}, {"measurement": "Pharmacophore torsion angle a(O1, O2, N2, CA2)", "setting": "Table A7-2, between pharmacophore elements of the bound compound", "result": 131.79}]}, {"smiles": "Cc1c(/N=C/c2ccc(OC(=O)c3ccco3)cc2)c(=O)n(-c2ccccc2)n1C", "note": "[compound 34]", "values": [{"measurement": "van der Waals contact distance GLY 656 atom CA", "setting": "Table A2-13, MASP-2 GLY 656 CA", "result": 3.72}]}, {"smiles": "Cc1nc(N)ccc1CNC(=O)[C@H](C)NC(=O)c1cc(Cc2ccccc2)n[nH]1", "note": "[compound 1367, (S)—N-(1-(((6-Amino-2-methylpyridin-3-yl)methyl)amino)-1-oxopropan-2-yl)-3-benzyl-1H-pyrazole-5-carboxamide]", "values": [{"measurement": "H-bond distance to MASP-2 ASP 627 atom OD2", "setting": "Table A1 (H-Bonds), ASP 627 OD2", "result": 3.15}, {"measurement": "H-bond distance to MASP-2 GLY 656 atom N", "setting": "Table A1 (H-Bonds), GLY 656 N", "result": 3.15}, {"measurement": "H-bond distance to MASP-2 GLY 656 atom O", "setting": "Table A1 (H-Bonds), GLY 656 O", "result": 2.77}, {"measurement": "H-bond distance to MASP-2 SER 628 atom O", "setting": "Table A1 (H-Bonds), SER 628 O", "result": 3.15}, {"measurement": "H-bond distance to MASP-2 SER 654 atom O", "setting": "Table A1 (H-Bonds), SER 654 O", "result": 3.08}, {"measurement": "H-bond distance to MASP-2 SER 657 atom O", "setting": "Table A1 (H-Bonds), SER 657 O", "result": 2.88}, {"measurement": "van der Waals contact distance, MASP-2 HIS 483 atom CD2", "setting": "Table A2-1", "result": 3.71}, {"measurement": "van der Waals contact distance, MASP-2 HIS 483 atom NE2", "setting": "Table A2-1", "result": 3.59}, {"measurement": "van der Waals contact distance, MASP-2 PHE 529 atom CD2", "setting": "Table A2-3", "result": 3.8}, {"measurement": "van der Waals contact distance, MASP-2 amino acid atom to compound atom", "setting": "Table A2-6: SER 611 (CB, OG), ASP 627 (CG, OD1, OD2), SER 628 (C, CA)", "result": 3.71}, {"measurement": "van der Waals contact distance, MASP-2 amino acid atom to compound atom", "setting": "Table A2-7: SER 628 (CB, O, OG)", "result": 3.56}, {"measurement": "van der Waals contact distance, MASP-2 amino acid atom to compound atom", "setting": "Table A2-9, ARG 630, AA atoms CG, CZ", "result": 3.86}, {"measurement": "van der Waals contact distance, MASP-2 amino acid atom to compound atom", "setting": "Table A2-9 second part, ARG 630, AA atoms N, NE, NH1", "result": 3.8}, {"measurement": "van der Waals contact distance, VAL 653 CG1 to compound atom", "setting": "Table A2-11", "result": 3.35}, {"measurement": "van der Waals contact distance, SER 654 O to compound atom", "setting": "Table A2-12", "result": 3.87}, {"measurement": "van der Waals contact distance, TRP 655 CA to compound atom", "setting": "Table A2-12", "result": 3.29}, {"measurement": "van der Waals contact distance TRP 655 atom CE3", "setting": "Table A2-13, MASP-2 TRP 655 CE3, compound atom in line below", "result": 3.89}, {"measurement": "van der Waals contact distance TRP 655 atom CZ3", "setting": "Table A2-13, MASP-2 TRP 655 CZ3", "result": 3.86}, {"measurement": "Ligand-pharmacophore element distance, pharmacophore element C2", "result": 0}, {"measurement": "Ligand-pharmacophore element distance, pharmacophore element C3", "result": 0.13}, {"measurement": "Ligand-pharmacophore element distance, pharmacophore element C4", "result": 0}, {"measurement": "Ligand-pharmacophore element distance, pharmacophore element C5", "result": 0}, {"measurement": "Ligand-pharmacophore element distance, pharmacophore element C6", "result": 0}, {"measurement": "Ligand-pharmacophore element distance, pharmacophore element C7", "result": 0}, {"measurement": "Ligand-pharmacophore element distance, pharmacophore element CA1", "result": 0.5}, {"measurement": "Ligand-pharmacophore element distance, pharmacophore element CA2", "result": 0.57}, {"measurement": "Ligand-pharmacophore element distance, pharmacophore element CA3", "result": 0}, {"measurement": "Ligand-pharmacophore element distance, pharmacophore element CA4", "result": 0}, {"measurement": "Ligand-pharmacophore element distance, pharmacophore element CA5", "result": 3.27}, {"measurement": "Ligand-pharmacophore element distance, pharmacophore element CA6", "result": 0}, {"measurement": "d(C3,CA1)", "result": 2.85}, {"measurement": "d(CA1,N1)2", "result": 1.39}, {"measurement": "d(CA1,O1)", "result": 4.35}, {"measurement": "d(CA1,O2)", "result": 5.37}, {"measurement": "d(H4,O1)", "result": 4.37}, {"measurement": "d(H4,O2)", "result": 5.63}, {"measurement": "d(O1,O2)", "result": 4.72}, {"measurement": "d(O2,H3)", "setting": "[1]", "result": 2.68}, {"measurement": "a(C3, CA1, O1)", "result": 149.67}, {"measurement": "a(CA1, O1, O2)", "result": 129.48}, {"measurement": "a(O1, O2, H4)", "result": 125.36}, {"measurement": "a(N1, CA1, O1) b)", "result": 173.97}, {"measurement": "a(O1, O2, H3)", "setting": "Table A6-2 pharmacophore angle", "result": 107.78}, {"measurement": "Pharmacophore torsion angle a(C3, CA1, O1, H4)", "setting": "[2]", "result": 23.21}, {"measurement": "Pharmacophore torsion angle a(H4, O1, O2, H3)", "setting": "[2]", "result": 42.45}, {"measurement": "Pharmacophore torsion angle a(N1, CA1, O1, H4)", "setting": "[2]", "result": 1.25}, {"measurement": "Pharmacophore torsion angle a(O1, H4, O2, CA1)", "setting": "[2]", "result": "−85.54"}]}]}
